Experiments:
[1] = pharmacokinetic studies on laboratory animals monitoring plasma carnosine content by liquid chromatography-ESI triple quadrupole mass spectrometry; assay type: in vivo
[2] = detoxification of alpha, beta-unsaturated carbonyl compounds; conditions: compared with L-carnosine
[3] = distribution in the rat after oral administration; assay type: in vivo

## NCCC(=O)N[C@H](Cc1c[nH]cn1)C(=O)O [D-carnosine, β-alanyl-D-histidine]
[1]
  gastrointestinal absorption: poor gastrointestinal absorption
[2]
  detoxification of the alpha, beta-unsaturated carbonyl compounds: performs the same detoxification
[3]
  distribution in the lung: distributed in the lung
